From patent US10252987B2, “Type of antiviral compound” (Institute of Medicinal Biotechnology, Chinese Academy of …, priority 2015, dated 2019) come the findings set out here.

For orientation: inhibition means how much of the control response was suppressed.

One test relates to HCV. Description: anti-HCV activity assay in cell culture (HCV RNA by one-step quantitative RT-PCR). To be noted: Hepatitis C virus, Huh7.5, 96 h, compound at 10 μmol/L; Huh7.5 cells infected with HCV virus particles; cultured 96 hrs; HCV RNA in cells vs virus control group; read-out: percent inhibition (%). In kind it is cell-based. The procedure:
The assay results of anti-HCV activity of the compound synthesized according to the present invention in cell culture are shown in Table 1, wherein the molecular weight is calculated by ChemBioDraw 12.0 software from the molecular structure of each compound.
100 μL Huh7.5 cells were seeded in 96-well cell culture plate to 1×10^5/mL density, cultured in an incubator at 37° C. under the condition of 5% CO2 and saturated humidity for 6 hrs. Huh7.5 cells were then infected by viral solution containing HCV virus particles, and solutions of compound of the present invention at a concentration of 10 μmol/L liquid were added respectively, cultured for further 96 hrs, and then total RNA was extracted from the cells. Amount of HCV RNA in cells was determined by one-step quantitative RT-PCR, and compared to RNA levels of the virus control group to calculate the inhibition rate of compounds on HCV.
With `CCCN1CCN(c2ccc(C#N)c(CN(CC)c3ccc(Sc4ccccc4)cc3)n2)CC1` [Compound 41, 2-((4-(phenylthio)phenyl)(ethyl)amino)methyl-6-(4-propylpiperazin-1-yl)-3-cyanopyridine], the inhibition at 10 µM stood at 57%. `CN1CCN(c2ccc(C#N)c(CNc3ccc(Br)cc3)c2)CC1` [Compound 42, 2-(((4-bromophenyl)amino)methyl)-4-(4-methylpiperazin-1-yl)benzonitrile]: the inhibition at 10 µM came out at 87%.

For the molecule `COc1ccc(N2CCN(Cc3cc(NCN4CCCCC4)ccc3C#N)CC2)cc1` [VI-2, 4-(((piperidin-1-yl)methyl)amino)-2-(4-(4-methoxyphenyl)piperazin-1-yl)methylbenzonitrile], the inhibition at 10 µM turned out to be 62%. Regarding `COc1ccc(N2CCN(Cc3cc(N4CCN(C)CC4)ccc3C#N)CC2)cc1` [VI-3, 4-((4-methyl)piperazin-1-yl)-2-(4-(4-methoxyphenyl)piperazin-1-yl)methylbenzonitrile], the inhibition at 10 µM was determined as 91%. On the same count and under the same terms, under `Cc1ccc(N2CCN(Cc3cc(N4CCN(C)CC4)ccc3C#N)CC2)cc1` [VI-4, 4-((4-methyl)piperazin-1-yl)-2-(4-(4-methylphenyl)piperazin-1-yl)methylbenzonitrile] stands 98%; under `COc1ccc(N2CCN(Cc3cc(N4CCNCC4)ccc3C#N)CC2)cc1` [VI-5, 4-(piperazin-1-yl)-2-(4-(4-methoxyphenyl)piperazin-1-yl)methylbenzonitrile], 79%. Take `Cc1ccc(N2CCN(Cc3cc(N4CCNCC4)ccc3C#N)CC2)cc1` [VI-6, 4-(piperazin-1-yl)-2-(4-(4-methylphenyl)piperazin-1-yl)methylbenzonitrile]: the inhibition at 10 µM was 88%. On to `Cc1ccc(N2CCN(Cc3cc(N4CCCC(N)C4)ccc3C#N)CC2)cc1` (stereo not shown) [VI-7, 4-(3-aminopiperidin-1-yl)-2-((4-(4-methylphenyl)piperazin-1-yl)methyl)benzonitrile], for which the inhibition at 10 µM was 71%. In the case of `CN1CCN(c2ccc(C#N)c(CN3CCN(c4ccc(Cl)cc4)CC3)c2)CC1` [VI-9, 4-(4-methylpiperazin-1-yl)-2-(4-(4-chlorophenyl)piperazin-1-yl)methylbenzonitrile], the inhibition at 10 µM came out at 92%. For the molecule `N#Cc1ccc(N2CCNCC2)cc1CN1CCN(c2ccc(Cl)cc2)CC1` [VI-10, 4-(piperazin-1-yl)-2-(4-(4-chlorophenyl)piperazin-1-yl)methylbenzonitrile], the inhibition at 10 µM came to 73%. Same read-out and setting: with `Cc1ccc(N2CCN(Cc3cc(N4CCN(C)CC4)ccc3C#N)CC2)cc1C` [VI-11, 4-(4-methylpiperazin-1-yl)-2-(4-(3,4-dimethylphenyl)piperazin-1-yl)methylbenzonitrile] the figure was 80%. Take `CN1CCN(c2ccc(C#N)c(CN3CCN(c4ccc(C5CCCCC5)cc4)CC3)c2)CC1` [VI-12, 4-(4-methylpiperazin-1-yl)-2-(4-(4-cyclohexylphenyl)piperazin-1-yl)methylbenzonitrile]: the inhibition at 10 µM came out at 86%. Still for that read-out and setting: with `CN1CCN(c2ccc(C#N)c(CN3CCN(c4ccc(C(C)(C)C)cc4)CC3)c2)CC1` [VI-13, 4-(4-methylpiperazin-1-yl)-2-(4-(4-tert-butylphenyl)piperazin-1-yl)methylbenzonitrile] the figure was 90%; with `CCc1ccc(N2CCN(Cc3cc(N4CCN(C)CC4)ccc3C#N)CC2)cc1` [VI-14, 4-(4-methylpiperazin-1-yl)-2-(4-(4-ethylphenyl)piperazin-1-yl)methylbenzonitrile], 88%; with `Cc1cc(N2CCN(Cc3cc(N4CCNCC4)ccc3C#N)CC2)ccc1Cl` [VI-15, 4-(piperazin-1-yl)-2-(4-(3-methyl4-chlorophenyl)piperazin-1-yl)methylbenzonitrile], 95%. On to `CC(C)c1ccc(N2CCN(Cc3cc(N4CCN(C)CC4)ccc3C#N)CC2)cc1` [VI-16, 4-(4-methylpiperazin-1-yl)-2-(4-(4-isopropylphenyl)piperazin-1-yl)methylbenzonitrile], for which the inhibition at 10 µM came to 68%. Same read-out and setting: with `CSc1ccc(N2CCN(Cc3cc(N4CCN(C)CC4)ccc3C#N)CC2)cc1` [VI-17, 4-(4-methylpiperazin-1-yl)-2-(4-(4-(methylthio)phenyl)piperazin-1-yl)methylbenzonitrile] the figure was 70%. Turning to `CN1CCN(c2ccc(C#N)c(CN3CCN(c4ccc(O)cc4)CC3)c2)CC1` [VI-19, 4-(4-methylpiperazin-1-yl)-2-(4-(4-hydroxylphenyl)piperazin-1-yl)methylbenzonitrile], the inhibition at 10 µM came to 67%. The same measure, in the same setting: with `CNc1ccc(N2CCN(Cc3cc(N4CCN(C)CC4)ccc3C#N)CC2)cc1` [VI-20, 4-(4-methylpiperazin-1-yl)-2-(4-(4-methylaminophenyl)piperazin-1-yl)methylbenzonitrile] the figure was 78%; with `CN1CCN(c2ccc(C#N)c(CN3CCN(c4ccc(N(C)C)cc4)CC3)c2)CC1` [VI-21, 4-(4-methylpiperazin-1-yl)-2-(4-(4-dimethylaminophenyl)piperazin-1-yl)methylbenzonitrile], 65%. As for `CN(C)CCN(C)c1ccc(C#N)c(CN2CCN(c3ccc(N4CCCC4)cc3)CC2)c1` [VI-22, 4-((2-(dimethylamino)ethyl)(methyl)amino)-2-(4-(4-(pyrrolidin-1-yl)phenyl)piperazin-1-yl)methylbenzonitrile], the inhibition at 10 µM was 83%. Regarding `Cc1cc(C2CCN(Cc3cc(N4CCN(C)CC4)ccc3C#N)CC2)ccc1C#N` [VI-23, 4-(4-methylpiperazin-1-yl)-2-(4-(3-methyl-4-cyanophenyl)piperidin-1-yl)methylbenzonitrile], the inhibition at 10 µM is 77%. In the case of `CN1CCN(c2ccc(C#N)c(CN3CCN(c4ccc(C5CCCC5)cc4)CC3)c2)CC1` [VI-24, 4-(4-methylpiperazin-1-yl)-2-(4-(4-cyclopentylphenyl)piperazin-1-yl)methylbenzonitrile], the inhibition at 10 µM turned out to be 59%. Same read-out and setting: with `CN(C)CNc1ccc(C#N)c(CN2CCN(c3ccc(C(C)(C)C)cc3)CC2)c1` [VI-33, 2-(4-(4-tert-butylphenyl)piperazin-1-yl)methyl-4-((N,N-dimethylamino)methyl)amino-benzonitrile] the figure was 90%; with `CN1CCN(c2ccc(C#N)c(CN3CCN(c4ccc(Br)cc4)CC3)c2)CC1` [VI-34, 2-(4-(4-bromophenyl)piperazin-1-yl)methyl-4-(4-methylpiperazin-1-yl)benzonitrile], 91%.

The same test, now with this note: compound at 10 μmol/L; Huh7.5 cells infected with HCV virus particles; cultured 96 hrs; HCV RNA in cells vs virus control group.
In the case of `COc1ccc(N2CCN(Cc3cc(NCCN(C)C)ccc3C#N)CC2)cc1` [VI-1], the “percent inhibition (%)” value is 99%.

For `N#Cc1ccc(N2CCNCC2)cc1CN1CCN(c2ccccc2)CC1` [VI-8, 4-(piperazin-1-yl)-2-(4-(4-phenyl)piperazin-1-yl)methylbenzonitrile], the “percent inhibition (%)” value turned out to be 82%.

With `CN1CCN(c2ccc(C#N)c(CN3CCN(c4ccc(Br)cc4)CC3)c2)CC1` [VI-18, 4-(4-methylpiperazin-1-yl)-2-(4-(4-bromophenyl)piperazin-1-yl)methylbenzonitrile], the “percent inhibition (%)” value is reported as 86%. In the case of `COc1ccc(N2CCN(Cc3cc(N4C(C)CNCC4C)ccc3C#N)CC2)cc1` (stereo not shown) [VI-25], the “percent inhibition (%)” value is reported as 67%.

With `Cc1ccc(N2CCN(Cc3cc(NCCCN(C)C)ccc3C#N)CC2)cc1` [VI-26, 4-(N′,N′-dimethyl-1,3-propanediamin-1-yl)-2-(4-p-methylphenylpiperazin-1-yl)methylbenzonitrile], the “percent inhibition (%)” value was 58%. As for `CN(C)CCCNc1ccc(C#N)c(CN2CCN(c3ccccc3)CC2)c1` [VI-27, 4-(N′,N′-dimethyl-1,3-propanediamin-1-yl)-2-(4-phenylpiperazin-1-yl)methylbenzonitrile], the “percent inhibition (%)” value is listed as 60%. On the same count and under the same terms, under `CN(C)CCNc1ccc(C#N)c(CN2CCN(c3ccc(C(F)(F)F)cc3)CC2)c1` [VI-28, 4-(N′,N′-dimethyl-1,2-ethylenediamin-1-yl)-2-(4-p-trifluoromethylphenyl-piperazin-1-yl)methylbenzonitrile] stands 79%. On the same count and under the same terms, under `CN(C)CCCNc1ccc(C#N)c(CN2CCN(c3ccc(Cl)cc3)CC2)c1` [VI-29, 4-(N′,N′-dimethyl-1,3-propanediamin-1-yl)-2-(4-p-chlorophenylpiperazin-1-yl)methylbenzonitrile] stands 80%; under `COc1ccc(N2CCN(Cc3cc(NCCN(C)C)ccc3C#N)CC2)cc1` [VI-30, 4-(N′,N′-dimethyl-1,2-ethylenediamin-1-yl)-2-(4-p-methoxyphenylpiperazin-1-yl)methylbenzonitrile], 66%; under `COc1ccc(N2CCN(Cc3cc(N(C)CCN(C)C)ccc3C#N)CC2)cc1` [VI-31, 4-(N,N′,N′-trimethyl-1,2-ethylenediamin-1-yl)-2-(4-p-methoxyphenylpiperazin-1-yl)methylbenzonitrile], 91%. Turning to `CN(C)CCCN(C)c1ccc(C#N)c(CN2CCN(c3ccc(C4CCCCC4)cc3)CC2)c1` [VI-32, 4-(N,N′,N′-trimethyl1,3-propanediamin-1-yl)-2-(4-p-cyclohexylphenylpiperazin-1-yl)methylbenzonitrile], the “percent inhibition (%)” value is on record as 80%. On the same count and under the same terms, under `CN(C)CCN(C)c1ccc(C#N)c(CN2CCN(c3ccc(Cl)cc3)CC2)c1` [VI-35, 4-(N,N′,N′-trimethyl-1,2-ethylenediamin-1-yl)-2-(4-p-chlorophenylpiperazin-1-yl)methylbenzonitrile] stands 99%.
